Entries after “also recorded” stand apart in the source; their conditions may differ. Like-named read-outs stand apart in the source and are kept apart here.
Legend:
mice [1] = test: Core body temperature, heart rate and movement of mice by telemetry in regulated H2S atmosphere; type: in vivo, mouse; details: 80 ppm
Text: Implantation of telemetry devices.
Exposure of Mice to Regulated Atmosphere.
Regulation of Ambient Temperature. […] Mice were exposed to regulated atmosphere as described above.

rats = details: cited from earlier work
mice [2] = details: 80 ppm, cited from earlier work
humans [3] = details: 500 ppm; cited from earlier work
mice [4] = tested on: mice
hif-1(ia04) embryos = test: Viability and suspended animation of nematodes in carbon monoxide based atmospheres (hif-1 mutant); type: in vivo, C. elegans
Text: Viability of nematodes in carbon monoxide based atmospheres. 30-60 embryos were harvested from continuously maintained Bristol N2 and […] strains as described above. Environmental chambers were continuously perfused at room temperature with pure CO (grade CP) or 500 ppm O2/CO at 70 cc/min for 24 hrs. To achieve 2500 ppm O2/CO or 2500 ppm O2/N2, 5000 ppm O2/N2 was mixed at a 1:1 ratio with either pure CO or pure N2 using two mass flow controllers (Sierra Instruments 810) to precisely monitor flow. Each gas was delivered into a 3-way valve (Cole-Parmer #A-30600-23) at 50 cc/min and the resulting mixture was then passed through a gas washing bottle and into an environmental chamber throughout the 24 hour exposure. All gases were supplied by Byrne Gas (Seattle, Wash.). The 500 ppm O2/CO mixture was certified to ±2% of the oxygen content and contained […] to ensure a consistent O2/CO ratio throughout the use of the tank.
Cell biological analysis. To determine the extent of developmental progression in nitrogen-based atmospheres (Table 2), 2-cell embryos were exposed to various degrees of hypoxia as described above and were either immediately photographed, or photographed following a […] recovery period in a humid chamber. […]

human keratinocytes = test: Preservation of human skin in carbon monoxide; keratinocyte growth and colony formation; type: cell-based
Experimental: Three human foreskins were obtained for this purpose. The foreskin tissue was preserved in keratinocyte growth medium (KGM) containing insulin, EGF (0.1 ng/ml), hydrocortisone ([…]) and bovine pituitary extract (approx. 50 micrograms/ml of protein). Foreskins were rinsed in PBS, and excess fatty tissue was removed. Each foreskin sample was divided into 2 equal pieces. Each piece was placed into a separate container containing a solution of PBS with 24 mg/ml of Dispase II (from Bacillus Polmyxa EC 3.4.24.4:Roche Diagnostics Corp., Indianapolis, Ind.). One container (containing a foreskin piece in PBS with Dispase II) was kept in a humid chamber in a fume hood. The other container (with the other half of the foreskin in PBS with Dispase II) was placed in the same fume hood in an environmental chamber perfused with humidified 100% CO. Both samples were maintained at room temperature for 24 hrs. Methods used to establish defined atmospheric conditions were identical to those used in Example 1. […]
Cells were inspected visually using an inverted phase contrast microscope. […] Quantitation of the number of viable keratinocytes as judged by colony formation was quantified for two of the three foreskins.

[5] = tested on: wild-type C. elegans embryos (Bristol N2); test: Viability and suspended animation of nematodes in carbon monoxide based atmospheres (wild-type); type: in vivo
Text: To achieve specific atmospheric conditions the following apparatus was used: a glass syringe barrel having a tip with a locking device such as a LUER-LOK with the large opening of the barrel sealed with a custom-machined steel and rubber fitting to make an airtight seal was locked to via locking device to the inlet port of an environmental chamber having an inlet and an outlet port each fitted with a locking devices such as a LUER-LOK fitting. A defined gas was humidified and provided to the environmental chamber by first venting the gas from a compressed tank (Byrne Specialty Gas, Seattle, Wash.) through a gas washing bottle (500 ml Kimex) filled with double distilled water. The gas washing bottle was connected to the environmental chamber past a gas-flow meter. A gas flow meter was used to provide a regulated 70 cc/min flow through the environmental chamber throughout the 24 hr incubation.
To test whether induced, reversible stasis could be achieved in C. elegans nematodes, 2-cell C. elegans embryos, L3 larvae or adult nematodes were collected and exposed to either an environment of effectively 100% CO, an environment of 100% N2, an environment comprising 500 ppm oxygen balanced with carbon monoxide, or to environments comprising 100, 500 or 1000 ppm oxygen balanced with nitrogen at room temperature. Nematodes were visualized using differential interference contrast microscopy (also known as Nomarski optics), images were collected and analyzed using NIH image and Adobe Photoshop 5.5. Embryos are approximately 50 μm in length.
Enviromental chambers and apparati. Oxygen deprivation experiments were carried out using a custom atmospheric chamber designed by W. Van Voorhies (Van Voorhies et al., 2000). The chamber is a 30 mL glass syringe (Fisher #14-825-10B) fitted with a custom steel stopper that is lined with two viton o-rings to ensure a tight seal. The stopper is bored through and has a steel lure lock on the exterior face so that a hose carrying compressed gas can be attached. A defined gas mixture is delivered to the chamber at a constant pressure and flow rate from compressed tanks by passing first through a rotometer (Aalborg, flow-tube number 032-41ST) or mass flow controller (Sierra Instruments #810) to monitor flow rate and then through a 500 ml gas washing bottle (Fisher #K28220-5001) containing 250 ml water to hydrate the gas. ¼″ OD nylon (Cole-Parmer #P-06489-06) or FEP (Cole-Parmer #A-06450-05) tubing was used and connections between tubing and the regulators and between the tubing and the rotometers were made with brass John-Guest-type fittings (Byrne Gas). All other connections were made with either microflow quick-connect fittings (Cole-Parmer #A-06363-57, #A-06363-52) or standard lure fittings (Cole-Parmer #A-06359-37, #A-06359-17).
Viability of nematodes in hypoxia. […] Log-phase, adult C. elegans were picked into a drop of sterile water containing 100 μg/ml ampicillin, 15 μg/ml tetracycline and 200 μg/ml streptomycin on a glass plate. Adults were chopped with a razor blade and 2-cell embryos were picked using a mouth pipet. 30-60 2-cell embryos were transferred to a small glass boat (custom made to fit atmospheric chambers, Avalon Glass Works, Seattle Wash.) filled with 3 ml of 1% agarose in M9. […] Embryos were scored for hatching 24 hours after exposure and hatched L1's were transferred to the surface of the NGM plate and followed to adulthood. […]

humans [6] = details: cited from earlier work

For `S` [H2S, hydrogen sulfide], the “core body temperature repeatedly reached on demand” value (mice [1]) is given as 13-15 °C, the “perinatal exposure effect on cerebellar Purkinje cells” value (rats; 20 or 50 ppm, 7 hours per day, gestation through post-natal day 21) is given as “longer dendritic branches with reduced aborization of cerebellar Purkinje cells” and the “perinatal study, neuropathology and behavior of rat pups” value (rats; 80 ppm) is given as “no neuropathological effects or altered motor activity, passive avoidance, or acoustic startle response”. The “behavioral toxicity, avoidance responses” value (rats; moderate levels, immediately after end of exposure) was “inhibits discriminated avoidance responses”, the “behavioral toxicity, maze learning” value (rats; moderate levels) was “interferes with the ability of rats to learn a baited radial arm maze task” and the “toxicology, gross and histopathological examination” value (rats; rats, 80 ppm, 6 hrs per day, 5 days per week, 90 days) was “no observed adverse effect”. The tolerability (mice [2]; exposures up to ten weeks) was “innocuous”, the “toxicology, gross and histopathological examination” value (mice [2]; mice, 6 hrs per day, 5 days per week, 90 days) was “no observed adverse effect” and the “acute effect of extreme levels” value (humans [3]) was “sudden collapse and unconsciousness”. For the same molecule, the “behavior compared to untreated animals” value (mice [4]; after 80 ppm, cabinet 10.5°C) was “no apparent change in the behavior”, the “behavior tests (SHIRPA protocol) before and after exposure” value (mice [4]; after gas exposure) was “no detectable behavioral differences” and the “behavior of the animals” value (mice [4]; four mice maintained for 4 weeks after 80 ppm, 6 hr, 15°C) was “no apparent change in the behavior”.
In the case of `[C-]#[O+]` [CO, carbon monoxide], the “viability (survival) to adulthood” value (hif-1(ia04) embryos; 0.25 kPa O2/CO, 24 hrs, hif-1(ia04) embryos) is reported as 84.0%, the suspended animation (hif-1(ia04) embryos; 0.25 kPa O2 balanced with carbon monoxide, hif-1(ia04)) is reported as “entered into suspended animation” and the “keratinocyte growth (visual inspection)” value (human keratinocytes; all three populations, 100% CO 24 hr) is reported as “significant growth”. For the same molecule, the “cell survival in CO relative to room air” value (human keratinocytes; human skin, 100% CO, after 24 hrs) was 100 fold, the suspended animation ([5]; 0.25 kPa O2 balanced with carbon monoxide, wild-type) was “entered into suspended animation” and the suspended animation ([5]; 100% CO (101 kPa CO), 24 hrs) was “entered into suspended animation”. The suspended animation ([5]; 100% CO (101 kPa CO), 24 hrs, listed as carbon monoxide) was “induced reversible suspended animation”, the lethality to nematodes ([5]; 100% CO, 24 hr, room temperature) was “not lethal” and the “suspended animation and survival” value ([5]; 500 ppm oxygen (0.05 kPa O2) balanced with carbon monoxide, 24 hrs) was “entered into suspended animation and survived; also recorded: arrested embryogenesis”. The symptoms in humans (humans [6]; 50 ppm) was “no symptoms”, the symptoms in humans (humans [6]; 200 ppm, within two-three hours) was “slight headache” and the symptoms in humans (humans [6]; 400 ppm, within one to two hours) was “frontal headache”. The symptoms in humans (humans [6]; 800 ppm, within 45 minutes) was “dizziness, nausea, and/or convulsions”, the symptoms in humans (humans [6]; 800 ppm, within two hours) was “insensible” and the lethality (humans [6]; around 1000 ppm, exposure more than around 1-2 minutes) was “can expire”.

Source: US20150164064A1, “METHODS, COMPOSITIONS AND DEVICES FOR INDUCING STASIS IN CELLS, TISSUES, ORGANS, AND ORGANISMS” (Fred Hutchinson Cancer Research Center, priority 2003, published 2015)
